The subject of experiment [1] is ACHN. Description: Ratio of EC50 for TRAIL-resistant human ACHN cells to EC50 for TRAIL-resistant human ACHN cells in presence of TRAIL. Format: functional.
For experiment [2], the system named is ACHN. The experiment in a line: Cytotoxicity against TRAIL-resistant human ACHN cells assessed as cell killing after 20 to 24 hrs in presence of TRAIL. Format: functional, cell-based.
For experiment [3], the system named is ACHN. The experiment in a line: Cytotoxicity against TRAIL-resistant human ACHN cells assessed as cell killing after 20 to 24 hrs. In kind it is functional, cell-based.

As usually defined, the EC50 is the concentration at which the effect is half-maximal.

Consider `C=C/C(C)=C/C[C@]1(C)[C@H](C)C[C@@H](O)[C@@]23C(=C[C@H](OC(=O)/C=C\C=C\CCCCC)C[C@@H]12)[C@@H](OC(C)=O)O[C@H]3OC(C)=O` [ARGUTIN A], for which the “Ratio EC50” value in the experiment on ACHN [1] worked out at 2.3. The EC50 was 2.4 µM in the experiment on ACHN [2] and 5.4 µM with ACHN [3].
As for `C=C/C(C)=C/C[C@]1(C)[C@H](C)C[C@@H](OC(=O)/C=C/C=C/CCCCC)[C@@]23C(=C[C@H](O)C[C@@H]12)[C@@H](OC(C)=O)O[C@H]3OC(C)=O` [ARGUTIN B], the “Ratio EC50” value in the experiment with ACHN [1] is reported as 3. For the same compound, the EC50 with ACHN [2] was determined as 4.6 µM; in the experiment with ACHN [3], 13.8 µM.
Turning to `C=C/C(C)=C/C[C@]1(C)[C@H](C)[C@@H](O)[C@@H](O)[C@@]23C(=C[C@H](OC(=O)/C=C\C=C\CCCCC)C[C@@H]12)[C@@H](OC(C)=O)O[C@H]3OC(C)=O` [ARGUTIN C], the “Ratio EC50” value with ACHN [1] was 1.9. Besides, the EC50 in the experiment on ACHN [2] amounted to 1.6 µM; with ACHN [3] it was 3.1 µM.
Turning to `C=C/C(C)=C/C[C@]1(C)[C@H](C)[C@@H](O)[C@@H](OC(=O)/C=C/C=C/CCCCC)[C@@]23C(=C[C@H](O)C[C@@H]12)[C@@H](OC(C)=O)O[C@H]3OC(C)=O` [ARGUTIN D], the “Ratio EC50” value in the experiment on ACHN [1] worked out at 1.6. Further, the EC50 with ACHN [2] was determined as 8.7 µM; in the experiment with ACHN [3], 14.3 µM.
In the same order, the values of `C=C/C(C)=C/C[C@]1(C)[C@H](C)[C@@H](O)C[C@@]23C(=C[C@H](OC(=O)/C=C\C=C\CCCCC)C[C@@H]12)[C@@H](OC(C)=O)O[C@H]3OC(C)=O` [ARGUTIN E] are 1.5, 2.2 µM and 3.3 µM.
On to `C=CC(=C)[C@@H](C[C@]1(C)[C@H](C)C[C@@H](O)[C@@]23C(=C[C@H](OC(=O)/C=C\C=C\CCCCC)C[C@@H]12)[C@@H](OC(C)=O)O[C@H]3OC(C)=O)OO` [ARGUTIN F], for which the “Ratio EC50” value in the experiment on ACHN [1] is 1.5. Further, the values for the EC50 with ACHN [2] and in the experiment on ACHN [3] were 7.1 µM and 10.4 µM, respectively.
Regarding `C=CC(=C)[C@@H](C[C@]1(C)[C@H](C)[C@@H](O)[C@@H](O)[C@@]23C(=C[C@H](OC(=O)/C=C\C=C\CCCCC)C[C@@H]12)[C@@H](OC(C)=O)O[C@H]3OC(C)=O)OO` [ARGUTIN G], the “Ratio EC50” value in the experiment with ACHN [1] is 1.5. Moreover, the EC50 in the experiment on ACHN [2] came to 2.8 µM; in the experiment with ACHN [3], 4.2 µM.

The record behind these values is ChEMBL document CHEMBL1649347, “Clerodane diterpenes from Casearia arguta that act as synergistic TRAIL sensitizers” (J Nat Prod, 2010).
